This experiment addresses recombinant eIF4E (Homo sapiens (Human), UniProt P06730). Nature of the experiment: Fluorescence polarization competition assay for eIF4E binding potency. In a few lines:
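Competitive displacement format: compounds compete with a fluorescent m7GDP tracer (20 nM) for 75 nM recombinant eIF4E. Incubation is 30 min at room temperature, protected from light, with 1% DMSO. Polarization read gives IC50 over eight 3-fold concentrations.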

The mark [1] stands for this setting: inhibition of eIF4E/EDA-m7GDP-ATTO-550 binding, calculated IC50 values, Table 4B, read-out: IC50.
The mark [2] stands for this setting: fluorescence polarization competition, 75 nM recombinant eIF4E, 20 nM EDA-m7GDP-ATTO-550, IC50 class, read-out: elF4E FP.
Where [3] appears, read: inhibition of eIF4E/EDA-m7GDP-ATTO-550 binding by 50%, Table 4B calculated values, read-out: IC50.

Where two headings read alike, the source gives them in different places.

recombinant eIF4E, sequence (P06730 whole entry): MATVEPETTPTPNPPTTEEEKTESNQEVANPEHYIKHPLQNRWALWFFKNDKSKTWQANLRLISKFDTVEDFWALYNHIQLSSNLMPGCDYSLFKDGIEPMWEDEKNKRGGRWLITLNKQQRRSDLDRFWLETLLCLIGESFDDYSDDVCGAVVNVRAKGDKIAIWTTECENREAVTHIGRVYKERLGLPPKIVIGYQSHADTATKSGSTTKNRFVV

As to `Cc1nc2cc(C(F)(F)F)c(N3CCN(C)CC3)c(C#N)c2c(=O)n1CCOc1ccc(Cl)cc1-c1ccnc2c(P(=O)(O)O)csc12` [compound 1613], under setting [1], the IC50 is 16.1 nM. In the case of `Cc1nc2cnc(C3=CCC(F)(F)CC3)c(C#N)c2c(=O)n1CCOc1ccc(Cl)cc1-c1ccnc2c(C(=O)O)csc12` [compound 882], the IC50 is less than 50 nM under setting [2] and 6.62 nM under setting [3]. On the same counts, the results for `Cc1cc(-c2cc(Cl)ccc2OCCn2c(C)nc3cc(C(F)(F)F)c(N4CCCC4)c(C#N)c3c2=O)c2scc(C(=O)O)c2n1` [compound 422] are less than 50 nM and 11.5 nM. As to `Cc1nc2cnc(-c3cccc(CN(C)CC(F)F)c3)c(C#N)c2c(=O)n1CC#Cc1ccc(Cl)cc1-c1ccnc2c(C(=O)O)csc12` [compound 1559], the IC50 under setting [1] is 13.4 nM. Turning to `Cc1nc2c(N3CCN(C)CC3(C)C)ncc(C#N)c2c(=O)n1CCOc1ccc(Cl)cc1-c1ccnc2c(C(=O)O)csc12` [compound 816], the IC50 is less than 50 nM under setting [2] and 6.87 nM under setting [3]. Take `Cc1cc(-c2cc(Cl)ccc2OCCn2c(C)nc3cc(S(C)(=O)=O)c(N4CCN(C)CC4)c(C#N)c3c2=O)c2sc(C)c(C(=O)O)c2n1` [compound 1150]: the IC50 was less than 50 nM under setting [2] and 4.6 nM under setting [3]. The corresponding values for `CC(=O)Nc1cc2c(=O)n(CCOc3ccc(Cl)cc3-c3cccc(C(=O)O)c3)cnc2cn1` [compound 131] are 50 to 1000 nM and 600 nM.

For the compound `Cc1nc2ccc(S(=O)(=O)N(C)Cc3ccccc3)c(C#N)c2c(=O)n1CCOc1ccc(Cl)cc1-c1ccnc2c(C(=O)O)csc12` [compound 283], the IC50 reads like this: under setting [2], less than 50 nM; under setting [3], 40.6 nM.

Regarding `Cc1nc2cnc(N(C)C3CCN(CC(F)(F)C(C)(F)F)CC3)c(C#N)c2c(=O)n1CC#Cc1ccc(Cl)cc1-c1ccnc2c(C(=O)O)csc12` [compound 1107], the IC50 is less than 50 nM under setting [2] and 10.5 nM under setting [3].

For the compound `Cc1cc(-c2cc(Cl)ccc2OCCn2c(C)nc3cc(Cl)c(N4CC(F)(F)C4)c(C#N)c3c2=O)c2scc(C(=O)O)c2n1` [compound 688], the IC50 was less than 50 nM under setting [2] and 22.8 nM under setting [3]. For `COc1cc(-c2cc(Cl)ccc2OCCn2c(C)nc3cc(C(F)(F)F)cc(C#N)c3c2=O)c2scc(C(=O)O)c2n1` [compound 329], the IC50 by setting is: under setting [2], less than 50 nM; under setting [3], 46.4 nM. The corresponding values for `Cc1nc2ccc(CCN(C)C)c(C#N)c2c(=O)n1CCOc1ccc(Cl)cc1-c1ccnc2c(C(=O)O)csc12` [compound 507] are less than 50 nM and 49 nM. The corresponding values for `Cc1cc(-c2cc(Cl)ccc2OCCn2c(C)nc3cnc(N4[C@@H]5CC[C@H]4CN(C)C5)c(C#N)c3c2=O)c2sc(C)c(C(=O)O)c2n1` [compound 1092] are less than 50 nM and 42.7 nM. The corresponding values for `Cc1sc2c(-c3cc(Cl)ccc3C#CCn3c(C)nc4cc(C(F)(F)F)c(CN5CCN(C)CC5)c(C#N)c4c3=O)ccnc2c1C(=O)O` [compound 643] are less than 50 nM and 0.832 nM.

For `Cc1nc2cc(F)cc(C#N)c2c(=O)n1CCOc1ccc(Cl)cc1-c1ccnc2c(C(=O)O)csc12` [compound 1937], the IC50 under setting [1] is 38.2 nM. Still for that read-out and setting: under `Cc1cc(-c2cc(Cl)ccc2OCCn2c(C)nc3cc(C(F)(F)F)c(C4=CCN(C)CC4)c(C#N)c3c2=O)c2sc(C)c(C(=O)O)c2n1` [compound 1417] stands 24.9 nM.

Take `Cc1nc2c(OC(F)F)ccc(C#N)c2c(=O)n1CCOc1ccc(Cl)cc1-c1ccnc2c(C(=O)O)csc12` [compound 359]: the IC50 under setting [2] is less than 50 nM and the IC50 under setting [3] was 48.9 nM.

`Cc1nc2cnc(N3CCN(C4CC4)CC3(C)C)c(C#N)c2c(=O)n1CCOc1ccc(Cl)cc1-c1ccnc2c(C(=O)O)csc12` [compound 1101]: the IC50 is less than 50 nM under setting [2] and 7.2 nM under setting [3].

As to `Cc1cc(-c2cc(Cl)ccc2OCCn2c(C)nc3cc(Cl)c(N4CC(C)(CO)C4)c(C#N)c3c2=O)c2scc(C(=O)O)c2n1` [compound 703], the IC50 is less than 50 nM under setting [2] and 3.18 nM under setting [3]. For `Cc1cc(-c2cc(Cl)ccc2OCCn2c(C)nc3cc(Cl)c(N4CC5(CCC5)C4)c(C#N)c3c2=O)c2scc(C(=O)O)c2n1` [compound 1950], the IC50 under setting [1] is 41.7 nM. Regarding `O=C(O)c1cccc(-c2cc(Cl)ccc2OCCn2nnc3ccccc3c2=O)c1` [compound 1991], the IC50 under setting [1] was more than 300000 nM. For `N#Cc1cc(C(=O)O)cc(-c2cc(Cl)ccc2OCCn2cnc3cnc(C#N)cc3c2=O)c1` [compound 93], the IC50 under setting [2] was more than 1000 nM and the IC50 under setting [3] is 1400 nM. As for `Cc1nc2ccc(S(=O)(=O)N3CCCCC3)c(C#N)c2c(=O)n1CCOc1ccc(Cl)cc1-c1ccnc2c(C(=O)O)csc12` [compound 251], the IC50 under setting [2] is less than 50 nM. Consider `Cc1cc(-c2cc(Cl)ccc2OCCn2c(C)nc3cc(C(F)(F)F)c(-c4cccnc4)nc3c2=O)c2scc(C(=O)O)c2n1` [compound 461], for which the IC50 reads like this: under setting [2], less than 50 nM; under setting [3], 6.15 nM. On the same counts, the results for `CCOc1c(C(F)(F)F)cc2nc(C)n(CCOc3ccc(Cl)cc3-c3cc(C)nc4c(C(=O)O)csc34)c(=O)c2c1C#N` [compound 1073] are 50 to 1000 nM and 58.1 nM. Take `Cc1nc2cnc(/C=C/CN(C)CC(F)(F)F)c(C#N)c2c(=O)n1CCOc1ccc(Cl)cc1-c1ccnc2c(C(=O)O)csc12` [compound 1898]: the IC50 under setting [1] was 61.3 nM. For `Cc1nc2cnc(N(C)C3CCN(CC(F)(F)F)CC3)c(C#N)c2c(=O)n1CC#Cc1ccc(Cl)cc1-c1ccnc2c(C(=O)NS(=O)(=O)C3CC(F)(F)C3)csc12` [compound 1677], under setting [1], the IC50 is 12.9 nM.

On to `Cc1ccc(-c2cc(Cl)ccc2OCCn2c(C)nc3ccc(CCN(C)C)c(C#N)c3c2=O)c2scc(C(=O)O)c12` [compound 576], for which the IC50 was less than 50 nM under setting [2] and 17.7 nM under setting [3]. As to `Cc1cnc(-c2nc3c(=O)n(CCOc4ccc(Cl)cc4-c4cc(C)nc5c(C(=O)O)csc45)c(C)nc3cc2C(F)(F)F)c(C)n1` [compound 1023], the IC50 is, setting by setting: under setting [2], less than 50 nM; under setting [3], 49.8 nM. For the compound `Cc1nc2cnc(N(C)C3CCN(C4COC4)CC3)c(C#N)c2c(=O)n1CCOc1ccc(Cl)cc1-c1ccnc2c(C(=O)O)csc12` [compound 1320], the IC50 under setting [1] was 27.7 nM. In the case of `Cc1nc2cc(C(=O)N(C)C)cc(C#N)c2c(=O)n1CCOc1ccc(Cl)cc1-c1ccnc2c(C(=O)O)csc12` [compound 413], the IC50 by setting is: under setting [2], less than 50 nM; under setting [3], 34.6 nM. On the same counts, the results for `Cc1cc(C)c(-c2c(C(F)(F)F)cc3nc(C)n(CCOc4ccc(Cl)cc4-c4cc(C)nc5c(C(=O)O)csc45)c(=O)c3c2C#N)cn1` [compound 350] are less than 50 nM and 14.2 nM.

In the case of `Cc1nc2cnc(N(C)C3CCCCC3)c(C#N)c2c(=O)n1CC#Cc1ccc(Cl)cc1-c1ccnc2c(C(=O)O)csc12` [compound 1120], the IC50 is, setting by setting: under setting [2], less than 50 nM; under setting [3], 9.51 nM. Consider `C=Cc1c(C(=O)O)cccc1-c1cc(Cl)ccc1OCCn1c(C)nc2cc(C(F)(F)F)cc(C#N)c2c1=O` [compound 169], for which the IC50 runs as follows: under setting [2], 50 to 1000 nM; under setting [3], 234 nM.

With `Cc1sc2c(-c3cc(Cl)ccc3OCCn3c(C)nc4cc(C(F)(F)F)c(CC5CN(C)C5)c(C#N)c4c3=O)ccnc2c1C(=O)O` [compound 1283], the IC50 under setting [1] was 33.5 nM.

For the compound `Cc1nc2cnc(N(C)C3CCN(CC(F)(F)CO)CC3)c(C#N)c2c(=O)n1CC#Cc1ccc(Cl)cc1-c1ccnc2c(C(=O)O)csc12` [compound 1132], the IC50 runs as follows: under setting [2], less than 50 nM; under setting [3], 13.3 nM.

For the compound `CNc1ncc(-c2cc(Cl)ccc2OCCn2cnc3cnc(C#N)cc3c2=O)nc1C(=O)O` [compound 88], the IC50 is more than 1000 nM under setting [2] and 1680 nM under setting [3]. On the same counts, the results for `N#Cc1cc2c(=O)n(CCOc3ccc(Cl)cc3-c3cccc4c(C(=O)O)nccc34)cnc2cn1` [compound 118] are 50 to 1000 nM and 416 nM.

For `Cc1cc(-c2cc(Cl)ccc2OCCn2c(C)nc3cc(Cl)c(-c4ncco4)c(C#N)c3c2=O)c2scc(C(=O)O)c2n1` [compound 1006], the IC50 is less than 50 nM under setting [2] and 18.2 nM under setting [3]. On the same counts, the results for `Cc1nc2ccc(S(=O)(=O)N3CCC(F)(F)CC3)c(C#N)c2c(=O)n1CCOc1ccc(Cl)cc1-c1ccnc2c(C(=O)O)csc12` [compound 282] are less than 50 nM and 17.1 nM.

Take `Cc1nc2cnc(N(C)C3CCN([C@H]4C[C@H](OC(F)F)C4)CC3)c(C#N)c2c(=O)n1CC#Cc1ccc(Cl)cc1-c1ccnc2c(C(=O)NS(=O)(=O)c3ccncc3)csc12` [compound 1764]: under setting [1], the IC50 was 19 nM. Turning to `Cc1nc2cc(C(F)(F)F)cc(C#N)c2c(=O)n1CCOc1ccc(Cl)cc1-c1ccnc2c(C(=O)NS(C)(=O)=O)csc12` [compound 569], the IC50 under setting [2] is less than 50 nM and the IC50 under setting [3] is 2 nM.

Take `Cn1nc(C(=O)O)cc1-c1cc(Cl)ccc1OCCn1cnc2cnc(C#N)cc2c1=O` [compound 84]: the IC50 is, setting by setting: under setting [2], more than 1000 nM; under setting [3], 1250 nM. `Cc1nc2cnc(N(C)C3CCN(C(C)(C)CF)CC3)c(C#N)c2c(=O)n1CCOc1ccc(Cl)cc1-c1ccnc2c(C(=O)O)csc12` [compound 1429]: under setting [1], the IC50 was 17.8 nM.

As to `Cc1cc(-c2cc(Cl)ccc2OCCn2c(C)nc3c(C4CC4)ncc(C#N)c3c2=O)c2scc(C(=O)O)c2n1` [compound 339], the IC50 reads like this: under setting [2], less than 50 nM; under setting [3], 26.8 nM.

Turning to `N#Cc1cc2c(=O)n(CCOc3ccc(Cl)cc3-c3ccc(C#N)c(C(=O)O)c3)cnc2cn1` [compound 94], the IC50 reads like this: under setting [2], more than 1000 nM; under setting [3], 1420 nM. On the same counts, the results for `Cc1cc(-c2cc(Cl)ccc2OCCn2c(C)nc3cnc(C4(C(F)(F)F)CC4)c(C#N)c3c2=O)c2scc(C(=O)O)c2n1` [compound 839] are less than 50 nM and 29.6 nM.

These data come from patent publication US11286268B1, “EIF4E-inhibiting compounds and methods” (EFFECTOR THERAPEUTICS, INC., priority 2019, dated 2022).
